Data set [1] relates to synthase of nitrogen oxide (NOC). Nature of the data set: Morphine abstinence model: activity of synthase of nitrogen oxide (radiometric, [3H]L-citrulline). It is filed as in vivo, rats Wistar. Particulars: morphine alone.
In a further data set the test system is thymus. Nature of the data set: Morphine abstinence model: thymus condition. It is filed as in vivo, rats. Particulars: morphine alone. The protocol: The effect of the compounds according to the invention on the condition of the thymus of the rats was also investigated: a control group, an experimental group of morphinized animals and an experimental group of animals were first morphinized and then injected with the compounds according to the invention. The experiment was carried out similarly to that described above.

Data set [2] in a line: Polarographic study of electrochemical reduction (electrochemical activity). To be noted: for i, mkA (polarographic wave current) / −E1/2, V (half-wave potential vs SCE): 37° C., forward trace, average for the group; for i, mkA (polarographic wave current): 9·10^−4 M. It is filed as physicochemical. How it is done:
The study was carried out on a general-purpose polarograph PU-1 with a two-coordinate recorder of the “LKD” type using a three-electrode thermostatically controlled polarographic cell and mercury dripping electrode (MDE) with forced separation of the drop and a dropping period of 0.5 second. A platinum wire was used as an auxiliary electrode and a saturated calomel electrode (SCE) was used as a control electrode.
2.0% solutions of sodium chloride having pH 7.0, 7.2, 7.4, 7.6 were used as a background; the pH values of the background solution were corrected by a solution of sodium hydroxide. The polarographic cell was filled with 5.0 ml of the background solution and for 5 minutes was purged with nitrogen for removing the dissolved oxygen. Then 0.5 ml of solution of the studied substance was added to the background solution, and the polarogram was recorded as a polarographic wave. The concentration of the compounds in the polarographic cell was 9·10^−4 M.
The pH was measured on the pH-meter with an accuracy of ±0.05 pH units. The polarographic measurements were carried out at a temperature of 37° C. The recording of polarograms of the investigated materials was effected under conditions of DC current at a scanning rate of the potential 10.0 mV/s with a active scanning stroke from a potential 0 to −0.5 V and sweep retrace from a −0.5 V to 0. The electric-current sensitivity was 5.0 mkA. The scale by the coordinate of the potentials was 50.0 mV/cm. The values of potentials of the half-wave E1/2 of the investigated materials are given with respect to the SCE potential.
The polarogram parameters such as a limiting current ilim and E1/2 were determined by the graphic method. The number of electrons participating in the reaction was calculated on the basis of the analysis of the polarographic wave using the Geirovsky-Ilkovich equation.

The test system of data set [3] is adenosine-sensitive receptors of thrombocytes. Kind of data set: ADP-induced aggregation of thrombocytes in vitro (Born method). It is filed as cell-based, rabbit. Particulars: 3 min incubation, ADP 10^−5 M. The protocol:
The compounds according to the invention were studied for the effect of aggregation of thrombocytes induced by a preliminary introduction of a solution of an aggregation inductor with a competing introduction of the compounds according to the invention.
The aggregation of thrombocytes was studied by the Born method based on determination of the changes in the optical density of plasma enriched with thrombocytes after its incubation with an aggregation inductor.
Adenozinediphosphoric acid (ADP) was selected as an aggregation inductor, which in fact is an aggregation generator. Use was made of a sample (registration number 885) of the Sigma Diagnostics Company (USA) in final concentration of 10^−5 M.
The experiments were carried out on male rabbits of the “Chinchilla” breed having a mass of 2.7±0.3 kg. 18-24 hours prior to the experiment they were deprived of feed while preserving free access to water.
To obtain plasma enriched with thrombocytes, blood was taken from a cut of a marginal vein of the rabbit ear, the sample was stabilized with 3.8% of sodium citrate solution in a ratio of 9:1 and centrifuged at 200 g (1000 rev/min) for 10 minutes. The top supernatant layer enriched with thrombocytes was transferred by an automatic dropper into a silicone test tube and kept at 37° C. The plasma enriched with thrombocytes contained, on the average, […]. If this content exceeded the specified 3×10^8 blood platelets in 1 liter, this sample was diluted to the necessary concentration with plasma deprived of thrombocytes, which was obtained by centrifuging blood at 650 g during 10 minutes.
The measurements of the optical density of the samples were made on two-channel aggregometer of the “Chronolog” Company (USA). A flask containing 490 mkl of plasma rich with thrombocytes was placed in a device, into which a magnetic agitator covered with Teflon was lowered. The index of maximum amplitude of aggregation (MA) in percent of a fall of the plasma optical density under effect of the aggregation inductor was recorded. The control index MA of plasma was compared with the MA of plasma incubated for 3 minutes with different concentrations of the compounds: from 10^−3 to 10^−7 in vitro experiments or with plasma obtained 15, 30, 60 and 120 minutes after intravenous administration of different doses of the compounds in vivo experiments.
The process of aggregation of thrombocytes was recorded with the help of a computer; on the monitor screen the there were depicted curves reflecting changes of the optical density of the plasma enriched which was taken as a standard 100% compared to the optical density of the non-thrombocyte plasma taken for 0% content of thrombocytes.
Under in vitro conditions a flask was filled with blood plasma enriched with thrombocytes, to which an aggregation inductor ADP was added at a concentration of 10^−5 M, incubated for 3 minutes, and then the compounds according to the invention were introduced directly into the flask. Their action by aggregation of thrombocytes was studied after 3-minute incubation in a wide range of concentrations from 10^−3 to 10^−7 M to minimum concentration of 10^−7 M not inducing no effect of suppressing the aggregation.

Take `CN1CC[C@]23c4c5ccc(O)c4O[C@H]2[C@@H](O)C=C[C@H]3[C@H]1C5` [Morphine, reference compound]: in data set [1], the “activity of the calcium-dependent form NOC in the liver” value is “rise of activity of the calcium-dependent form NOC” and the “activity of the calcium-independent form NOC in the liver” value is “decrease of activity of the calcium-independent form NOC”. In the data set with thymus, the “Nitrites, thymus Supernatant, Administration of morphine” value is given as 0.511 ± 0.05 nmol/mg of protein and the “Thymus mass, Administration of morphine” value is recorded as 145 ± 9 mg.
With “sodium salt of 5-amino-2-(CP(β-D-ribofuranosile)benzo[d]-3H-pyridazine-1,4-dione [Compound 10]”, in data set [2] (calculated with the Geirovsky-Ilkovich equation), the “number of electrons participating in the reduction” value is listed as 4.09. Moreover, the “i, mkA (polarographic wave current)” value in data set [2] (pH 7.0) came out at 0.23 ± 0.03 mkA; in data set [2] (pH 7.2), 0.30 ± 0.01 mkA; in data set [2] (pH 7.4), 0.29 ± 0.02 mkA; in data set [2] (pH 7.6), 0.31 ± 0.02 mkA. The “−E1/2, V (half-wave potential vs SCE)” value in data set [2] (pH 7.0) stood at 0.092 ± 0.02 V; in data set [2] (pH 7.2) it was 0.09 ± 0.01 V; in data set [2] (pH 7.4) it was 0.092 ± 0.02 V; in data set [2] (pH 7.6), 0.09 ± 0.01 V. For the same compound, in data set [2] (reverse stroke vs forward stroke), the “half-wave potential more positive on reverse stroke than on forward stroke” value is 30.0 mV. For the same compound, the “MA - fall of optical density of plasma, % to the standard” value in data set [3] (10^−3 M) is 46.2 ± 2.7 %; in data set [3] (10^−4 M), 48.7 ± 2.4 %; in data set [3] (10^−5 M), 40.2 ± 4.0 %. Also, the entries for the “MA - drop of optical density, % compared to control” value in data set [3] (10^−6 M) and in data set [3] (10^−7 M) were 48.4 ± 2.4% and 49.8 ± 2.0%, respectively.

These data come from US20070166547A1, “Use of a layer consisting of hydrophobic linear, or two-dimensional polycyclic aromatics as a barrier layer or an encapsulation and electric components constructed with a layer of this type and comprising organic polymers” (priority 2003, published 2007).
